{"source": "patent US8173378B2", "about": "“Methods of using an alpha-1-adrenergic receptor having altered ligand affinity” (Pharmacome LLC, priority 2007, dated 2012)", "key": {"α1D-adrenergic receptor": {"target": "T1, α1D-adrenergic receptor (Homo sapiens, UniProt P25100)", "T1 sequence (P25100 1-572)": "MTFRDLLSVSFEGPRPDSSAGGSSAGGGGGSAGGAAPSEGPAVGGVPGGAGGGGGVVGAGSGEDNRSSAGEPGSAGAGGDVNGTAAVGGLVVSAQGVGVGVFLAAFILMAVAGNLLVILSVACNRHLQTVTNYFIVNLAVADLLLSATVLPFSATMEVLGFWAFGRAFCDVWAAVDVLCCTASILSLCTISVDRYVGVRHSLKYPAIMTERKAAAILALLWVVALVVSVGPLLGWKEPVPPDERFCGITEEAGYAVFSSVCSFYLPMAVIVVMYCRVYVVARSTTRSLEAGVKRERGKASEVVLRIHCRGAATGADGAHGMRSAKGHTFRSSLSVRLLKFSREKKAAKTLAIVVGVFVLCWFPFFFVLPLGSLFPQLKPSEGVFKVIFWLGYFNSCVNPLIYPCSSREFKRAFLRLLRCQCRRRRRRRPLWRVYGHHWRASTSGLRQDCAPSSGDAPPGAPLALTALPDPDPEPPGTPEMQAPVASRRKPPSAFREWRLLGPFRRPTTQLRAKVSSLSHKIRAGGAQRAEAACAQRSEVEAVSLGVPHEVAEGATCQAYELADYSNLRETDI", "conditions": "α1D subtype; cited from earlier work"}, "α1B-adrenergic receptor": {"target": "T2, α1B-adrenergic receptor (Homo sapiens, UniProt P35368)", "T2 sequence (P35368 1-520)": "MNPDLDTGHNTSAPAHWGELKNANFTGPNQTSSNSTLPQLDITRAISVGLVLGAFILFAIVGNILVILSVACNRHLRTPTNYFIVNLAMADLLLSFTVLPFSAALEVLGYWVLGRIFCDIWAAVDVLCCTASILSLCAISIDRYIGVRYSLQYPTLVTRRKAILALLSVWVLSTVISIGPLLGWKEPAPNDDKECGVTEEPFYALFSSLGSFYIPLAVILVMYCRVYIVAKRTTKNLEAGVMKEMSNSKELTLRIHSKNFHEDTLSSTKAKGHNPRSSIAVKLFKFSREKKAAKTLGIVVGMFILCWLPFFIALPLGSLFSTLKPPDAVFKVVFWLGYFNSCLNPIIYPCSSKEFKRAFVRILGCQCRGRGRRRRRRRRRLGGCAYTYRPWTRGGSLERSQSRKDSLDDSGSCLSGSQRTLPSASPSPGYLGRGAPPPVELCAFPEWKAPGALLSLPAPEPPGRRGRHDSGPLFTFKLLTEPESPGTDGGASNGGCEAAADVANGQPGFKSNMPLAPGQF", "conditions": "α1B subtype; cited from earlier work"}, "[1]": {"target": "T3, α1L-adrenergic receptor (α1A-adrenergic receptor / CRELD1α complex) in α1L cells (Homo sapiens, UniProt P35348)", "T3 construct": "the coding region of the ADRA1A gene was subcloned into the EcoRI restriction enzyme site of the multicloning site A of the pIRES; expressed in transfected cells", "T3 sequence (P35348 1-466)": "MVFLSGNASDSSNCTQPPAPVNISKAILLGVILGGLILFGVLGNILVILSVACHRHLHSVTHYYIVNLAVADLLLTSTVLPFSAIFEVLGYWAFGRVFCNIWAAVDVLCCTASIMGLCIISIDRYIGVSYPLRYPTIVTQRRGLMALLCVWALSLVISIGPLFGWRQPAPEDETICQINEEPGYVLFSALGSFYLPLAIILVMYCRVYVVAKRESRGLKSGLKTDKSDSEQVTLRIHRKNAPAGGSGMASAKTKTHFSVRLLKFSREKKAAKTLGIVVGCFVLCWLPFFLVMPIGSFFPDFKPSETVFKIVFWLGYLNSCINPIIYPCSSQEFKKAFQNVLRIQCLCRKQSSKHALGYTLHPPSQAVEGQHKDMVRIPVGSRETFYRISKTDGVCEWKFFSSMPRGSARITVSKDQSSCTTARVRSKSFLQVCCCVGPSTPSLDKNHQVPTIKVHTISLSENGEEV", "T3 sequence (Q96HD1 30-420 partner)": "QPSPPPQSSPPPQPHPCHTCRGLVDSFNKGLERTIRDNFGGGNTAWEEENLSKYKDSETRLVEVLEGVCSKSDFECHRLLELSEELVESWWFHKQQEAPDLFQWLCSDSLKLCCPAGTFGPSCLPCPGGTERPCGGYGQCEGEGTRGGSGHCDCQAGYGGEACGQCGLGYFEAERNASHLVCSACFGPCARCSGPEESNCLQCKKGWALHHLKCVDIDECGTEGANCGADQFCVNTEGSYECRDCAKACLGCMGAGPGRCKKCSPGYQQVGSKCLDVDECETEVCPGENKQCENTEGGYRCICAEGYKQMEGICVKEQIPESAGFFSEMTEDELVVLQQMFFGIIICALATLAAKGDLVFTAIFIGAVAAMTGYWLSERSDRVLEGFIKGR", "assay": "Whole-cell [3H]-silodosin binding in α1L cells (CHO-K1 coexpressing ADRA1A and CRELD1α)", "conditions": "for sensitivity of receptors in α1L cells (in words): whole-cell competition binding", "experimental": "(§1) The vector was amplified/purified in a conventional method, and then transfected into CHO-K1 cells, which are cells of Chinese Hamster ovarian origin, with Lipofectamine 2000 (Invitrogen Corporation) according to the manufacturer's protocol. Two days after the transfection, 1200 μg/ml of the antibiotic Geneticin (G418) were added to the DMEM culture medium. […] The G418-resistant cells were diluted, suspended, and injected dividedly into a 96-well plate so that an average of 0.5 cells was put in per well, and a single colony was chosen. This operation was repeated three times, whereby a stable clone (au cells) having coexpressed the ADRA1A gene and the CREDL1α gene was produced. Further, as control groups, the cells (α1A cells) having stably expressed only the ADRA1A gene and the cells (CREDL1α cells) having stably expressed only the CREDL1α gene were produced.\nThe stable clone was studied by a pharmacological binding method with [^3H]-silodosin, which is a radioligand. An experiment was conducted using a whole-cell binding method. That is, cells were scattered two to three days before the experiment so that they are semi-confluent, washed twice with ice-cold PBS, and then scraped by a scraper. The cells thus collected were suspended again in a Krebs-HEPES solution, and then incubated at 4° C. for four hours together with [^3H]-silodosin and another drug as needed. Thereafter, the cells were filtered/washed by a Whatmann GC/F filter pretreated with polyethylene imine, and the radioactivity was measured by a liquid scintillation counter. The non-specific binding was evaluated as binding in the presence of 30 μM phenotolamine.\nThe binding of [^3H]-silodosin of various concentrations (30 to 1000 pM) to the α1L cells was examined (FIG. 1).\nSilodosin is known to bind selectively to the α1A- and α1L-subtypes with a high affinity. […] The α1A cells were used as control cell line. [^3H]-silodosin is known as a selective antagonist of α1A- and α1L-subtypes both."}, "α1L-adrenergic receptor": {"target": "α1L-adrenergic receptor", "conditions": "α1L subtype; cited from earlier work"}, "[2]": {"target": "T4, α1L-adrenergic receptors in human prostate tissue segments (Homo sapiens, UniProt P35348)", "T4 construct": "from tissue; host or cells: human prostate tissue segments", "T4 sequence (P35348 1-466)": "T3 sequence (P35348 1-466)", "assay": "[3H]-silodosin binding in human prostate tissue segments"}, "α1A-adrenergic receptor": {"target": "T5, α1A-adrenergic receptor (Homo sapiens, UniProt P35348)", "T5 sequence (P35348 1-466)": "T3 sequence (P35348 1-466)", "conditions": "α1A subtype; cited from earlier work"}, "[3]": {"target": "T6, α1A-adrenergic receptor in α1A cells (Homo sapiens, UniProt P35348)", "T6 construct": "the coding region of the ADRA1A gene was subcloned into the EcoRI restriction enzyme site of the multicloning site A of the pIRES; expressed in transfected cells", "T6 sequence (P35348 1-466)": "T3 sequence (P35348 1-466)", "assay": "Whole-cell [3H]-silodosin binding in α1A cells (CHO-K1 expressing only ADRA1A)", "experimental": "as §1\nThe stable clone was studied by a pharmacological binding method with [^3H]-silodosin, which is a radioligand. An experiment was conducted using a whole-cell binding method. […] Thereafter, the cells were filtered/washed by a Whatmann GC/F filter pretreated with polyethylene imine, and the radioactivity was measured by a liquid scintillation counter. The non-specific binding was evaluated as binding in the presence of 30 μM phenotolamine. […]"}}, "data": [{"smiles": "CCOc1ccccc1OCCN[C@H](C)Cc1ccc(OC)c(S(N)(=O)=O)c1", "note": "[tamsulosin]", "values": [{"measurement": "Affinity (pKb)", "setting": "α1D-adrenergic receptor", "result": 9.9}, {"measurement": "Affinity (pKb)", "setting": "α1B-adrenergic receptor", "result": 9.3}, {"measurement": "sensitivity of receptors in α1L cells (in words)", "setting": "[1]; α1L cells", "result": "high sensitivity"}]}, {"smiles": "COc1ccccc1N1CCN(CCN2C(=O)CC3(CCCC3)CC2=O)CC1.Cl.Cl", "note": "[BMY 7378, 8-[2-[4-(2-methoxyphenyl)-1-piperazinyl]ethyl]8-azaspiro[4,5]decane7,9-dione dihydrochloride]", "values": [{"measurement": "Affinity (pKb)", "setting": "α1B-adrenergic receptor", "result": 7.4}, {"measurement": "sensitivity of receptors in α1L cells (in words)", "setting": "[1]; α1L cells", "result": "only low sensitivity"}]}, {"smiles": "CC(C)(Cc1c[nH]c2ccc(Cl)cc12)NCCOc1ccccc1OCC1CC1.Cl", "note": "[RS-17053, N-[2-(2-cyclopropylmethoxyphenoxy)ethyl]-5-chloro-α,α-dimethyl-1H-indole-3-ethanamine hydrochloride]", "values": [{"measurement": "Affinity (pKb)", "setting": "α1D-adrenergic receptor", "result": 7.8}, {"measurement": "Affinity (pKb)", "setting": "α1L-adrenergic receptor", "result": 6.3}, {"measurement": "Affinity (pKb)", "setting": "α1B-adrenergic receptor", "result": 7.8}, {"measurement": "Ki", "setting": "[2]", "result": 251, "unit": "nM"}, {"measurement": "Ki", "setting": "[1]", "result": "> 1000", "unit": "nM"}, {"measurement": "sensitivity of receptors in α1L cells (in words)", "setting": "[1]; α1L cells", "result": "low in sensitivity"}, {"measurement": "Affinity (pKb)", "setting": "α1A-adrenergic receptor", "result": "9.1-8.4"}, {"measurement": "Ki", "setting": "[3]", "result": 1.58, "unit": "nM"}]}, {"smiles": "C[C@H](Cc1cc2c(c(C(N)=O)c1)N(CCCO)CC2)NCCOc1ccccc1OCC(F)(F)F", "note": "[silodosin]", "values": [{"measurement": "Affinity (pKb)", "setting": "α1D-adrenergic receptor", "result": 8.6}, {"measurement": "Affinity (pKb)", "setting": "α1L-adrenergic receptor", "result": "10.7-9.5"}, {"measurement": "Affinity (pKb)", "setting": "α1B-adrenergic receptor", "result": 8.1}, {"measurement": "Affinity (pKb)", "setting": "α1A-adrenergic receptor", "result": "10.7-9.5"}]}, {"smiles": "C[C@H](Cc1cc2c(c(C(N)=O)c1)N(CCCO)CC2)NCCOc1ccccc1OCC(F)(F)F", "note": "[[^3H]-silodosin]", "values": [{"measurement": "Kd", "setting": "[2]; human prostate tissue segments, read-out: pKD (dissociation equilibrium constant from saturation binding curve) (converted)", "result": 0.316, "unit": "nM"}, {"measurement": "maximum binding amount (Bmax)", "setting": "[1]; α1L cells, saturation binding, 30 to 1000 pM", "result": 134, "unit": "fmol/mg protein"}, {"measurement": "Kd", "setting": "[1]; α1L cells, saturation binding, whole-cell method", "result": 0.843, "unit": "nM"}, {"measurement": "Kd", "setting": "[3]; α1A cells, whole-cell method, read-out: pKD (dissociation equilibrium constant from saturation binding curve) (converted)", "result": 0.2, "unit": "nM"}]}]}
